The source of these data is patent US8465963B2, “Grass endophyte enhanced attributes” (priority 2005, dated 2013).

In data set [1] the test system is endophytes (AR502, AR542 and AR584). Nature of the data set: Trial 1 field trial: effect of fungicides on viable endophytes, means over endophytes. The conditions noted are these: means of all other treatments. From the text:
The pH of the solution is 7.5.

For data set [2], the system named is ryegrass (Lolium perenne) seed infected with Neotyphodium endophyte. The conditions noted are these: prochloraze 1 g/kg; triticonazole 5 and 10 g/kg; cited from earlier work.
Data set [3] concerns Neotyphodium endophytes in perennial ryegrass. Particulars: fungicide soak; cited from earlier work.
Data set [4] deals with Neotyphodium endophytes in tall fescue. The conditions noted are these: fungicide soak; cited from earlier work.

For the molecule `Fc1ccc([C@]2(Cn3cncn3)O[C@H]2c2ccccc2Cl)cc1` [epiconazole], the “level of viable endophyte” value in data set [1] was “most significantly reducing viable endophyte levels”.
As to `CCCN(CCOc1c(Cl)cc(Cl)cc1Cl)C(=O)n1ccnc1` [prochloraze], the seed germination result in data set [2] is given as “effected”.
As to `CCCCNC(=O)n1c(NC(=O)OC)nc2ccccc21` [benomyl], the “effect of fungicide on endophyte” value in data set [3] and in data set [4] was “effective in killing endophyte” in each case.
`O=CNC(N1CCN(C(NC=O)C(Cl)(Cl)Cl)CC1)C(Cl)(Cl)Cl` (stereo not drawn) [Triforine]: the results for the “effect of fungicide on endophyte” value in data set [3] and in data set [4] were “effective in some perennial ryegrass plants” and “effective in tall fescue”, respectively.
As for `CC1(C)CCC(=Cc2ccc(Cl)cc2)C1(O)Cn1cncn1` (stereo not drawn) [triticonazole], the seed germination entry in data set [2] is “effected”.
Turning to `COC(=O)NC(=S)Nc1ccccc1NC(=S)NC(=O)OC` [Thiophanate-methyl], the “effect of fungicide on endophyte” value in data set [3] was “little effect on endophyte”; in data set [4], “no effect on endophyte”.
